This is an account of results in ChEMBL document CHEMBL5647694, “Novel orally bioavailable EZH1/2 dual inhibitors with greater antitumor efficacy than an EZH2 selective inhibitor” (Cancer Sci, 2017).

A short description of data set [1]: AUC (0 to 24 hrs) in BALB/c mouse at 6.3 mg/kg administered as single dose. It is filed as ADME, organism-based. Particulars: in vivo, route po.
Data set [2] addresses Tyrosine-protein kinase FRK (Homo sapiens) (UniProt P42685). The experiment in a line: Inhibition of N-terminal GST-fused human FRK catalytic domain (223 to 505 residues) expressed in baculovirus-infected Sf21 cells using Srctide as substrate at 1 uM in presence of ATP by Mobility shift assay.
Data set [3] addresses Insulin receptor-related protein (Homo sapiens) (UniProt P14616). The experiment in a line: Inhibition of N-terminal fused human IRR cytoplasmic domain (953 to 1297 residues) expressed in baculovirus-infected Sf21 cells using IRS1 as substrate at 1 uM in presence of ATP by Mobility shift assay.
Data set [4] deals with Eukaryotic elongation factor 2 kinase (Homo sapiens) (UniProt O00418). The experiment in a line: Inhibition of N-terminal GST-fused full length human EEF2K (1 to 725 residues) expressed in Escherichia coli expression system using EEF2Ktide as substrate at 1 uM in presence of ATP by Mobility shift assay.
Chain of Eukaryotic elongation factor 2 kinase (Homo sapiens) (O00418 whole entry, the tested form may be a part): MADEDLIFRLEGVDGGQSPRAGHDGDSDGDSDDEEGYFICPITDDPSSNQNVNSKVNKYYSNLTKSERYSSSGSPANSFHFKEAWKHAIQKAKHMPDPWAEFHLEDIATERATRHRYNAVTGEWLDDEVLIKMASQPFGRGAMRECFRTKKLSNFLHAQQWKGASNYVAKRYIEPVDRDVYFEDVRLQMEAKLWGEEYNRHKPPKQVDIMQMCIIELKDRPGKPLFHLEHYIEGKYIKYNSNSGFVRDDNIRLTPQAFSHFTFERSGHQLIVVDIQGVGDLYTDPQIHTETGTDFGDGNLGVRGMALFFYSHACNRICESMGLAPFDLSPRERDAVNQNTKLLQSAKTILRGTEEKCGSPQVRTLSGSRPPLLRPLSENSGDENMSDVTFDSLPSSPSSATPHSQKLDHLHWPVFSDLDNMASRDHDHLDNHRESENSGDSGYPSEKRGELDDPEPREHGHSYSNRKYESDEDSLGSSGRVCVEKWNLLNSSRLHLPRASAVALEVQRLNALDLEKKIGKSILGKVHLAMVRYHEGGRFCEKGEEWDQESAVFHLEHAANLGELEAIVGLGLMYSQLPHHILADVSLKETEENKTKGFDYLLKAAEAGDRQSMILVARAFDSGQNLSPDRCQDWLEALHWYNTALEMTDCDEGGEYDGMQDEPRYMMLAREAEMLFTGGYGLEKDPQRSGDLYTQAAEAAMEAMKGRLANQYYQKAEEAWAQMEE
The target in data set [5] is Misshapen-like kinase 1 (Homo sapiens) (UniProt Q8N4C8). The experiment in a line: Inhibition of N-terminal GST-fused human MINK catalytic domain (1 to 314 residues) expressed in baculovirus expression system using Modified Erktide as substrate at 1 uM in presence of ATP by Mobility shift assay.
Chain of Misshapen-like kinase 1 (Homo sapiens) (Q8N4C8 whole entry, looked up, the tested form may be a part): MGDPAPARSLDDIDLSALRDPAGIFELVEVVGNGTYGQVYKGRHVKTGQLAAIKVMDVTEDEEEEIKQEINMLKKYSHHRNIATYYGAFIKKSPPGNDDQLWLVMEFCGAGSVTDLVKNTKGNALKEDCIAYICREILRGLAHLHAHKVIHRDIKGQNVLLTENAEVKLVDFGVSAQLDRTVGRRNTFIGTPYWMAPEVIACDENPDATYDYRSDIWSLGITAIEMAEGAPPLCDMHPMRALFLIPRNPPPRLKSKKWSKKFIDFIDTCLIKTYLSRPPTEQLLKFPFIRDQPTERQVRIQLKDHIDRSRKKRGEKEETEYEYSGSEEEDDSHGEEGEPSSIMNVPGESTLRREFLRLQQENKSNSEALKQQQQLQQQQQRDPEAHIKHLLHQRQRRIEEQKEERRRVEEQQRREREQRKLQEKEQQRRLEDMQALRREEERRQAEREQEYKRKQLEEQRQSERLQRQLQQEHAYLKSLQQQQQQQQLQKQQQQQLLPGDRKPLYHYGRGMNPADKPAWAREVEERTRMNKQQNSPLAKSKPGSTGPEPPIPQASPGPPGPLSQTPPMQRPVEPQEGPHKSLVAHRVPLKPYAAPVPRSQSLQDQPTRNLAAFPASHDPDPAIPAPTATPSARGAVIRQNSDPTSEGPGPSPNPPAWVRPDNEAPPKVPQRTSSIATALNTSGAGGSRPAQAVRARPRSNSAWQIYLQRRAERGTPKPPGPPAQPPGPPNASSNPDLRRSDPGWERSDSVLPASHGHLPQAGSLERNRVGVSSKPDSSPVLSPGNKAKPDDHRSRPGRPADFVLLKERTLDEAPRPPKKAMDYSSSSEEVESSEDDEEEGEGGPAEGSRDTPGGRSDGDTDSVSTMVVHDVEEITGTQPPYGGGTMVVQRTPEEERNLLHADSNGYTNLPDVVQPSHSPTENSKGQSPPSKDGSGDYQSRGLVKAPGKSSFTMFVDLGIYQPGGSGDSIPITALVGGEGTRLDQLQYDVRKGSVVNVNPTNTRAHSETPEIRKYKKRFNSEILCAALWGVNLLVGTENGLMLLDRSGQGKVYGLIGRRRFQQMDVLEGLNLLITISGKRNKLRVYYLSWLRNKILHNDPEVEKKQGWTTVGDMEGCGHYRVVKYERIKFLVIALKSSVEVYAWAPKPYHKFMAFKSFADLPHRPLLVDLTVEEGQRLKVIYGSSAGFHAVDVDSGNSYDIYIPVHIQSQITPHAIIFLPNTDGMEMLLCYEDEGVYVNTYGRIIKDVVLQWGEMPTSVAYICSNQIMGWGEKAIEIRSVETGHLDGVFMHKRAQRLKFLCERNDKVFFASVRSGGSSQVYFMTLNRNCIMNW
Data set [6] has as its target Protein kinase C iota type (Homo sapiens) (UniProt P41743). The experiment in a line: Inhibition of N-terminal GST-fused human full length PKC-iota (1 to 587 residues ) expressed in baculovirus expression system using PKC peptide as substrate at 1 uM in presence of ATP by Mobility shift assay.
Data set [7] deals with SRSF protein kinase 1 (Homo sapiens) (UniProt Q96SB4). The experiment in a line: Inhibition of N-terminal GST-fused full length human SRPK1 (1 to 655 residues) expressed in Escherichia coli expression system using SRPKtide as substrate at 1 uM in presence of ATP by IMAP assay.
Chain of SRSF protein kinase 1 (Homo sapiens) (Q96SB4 whole entry, the tested form may be a part): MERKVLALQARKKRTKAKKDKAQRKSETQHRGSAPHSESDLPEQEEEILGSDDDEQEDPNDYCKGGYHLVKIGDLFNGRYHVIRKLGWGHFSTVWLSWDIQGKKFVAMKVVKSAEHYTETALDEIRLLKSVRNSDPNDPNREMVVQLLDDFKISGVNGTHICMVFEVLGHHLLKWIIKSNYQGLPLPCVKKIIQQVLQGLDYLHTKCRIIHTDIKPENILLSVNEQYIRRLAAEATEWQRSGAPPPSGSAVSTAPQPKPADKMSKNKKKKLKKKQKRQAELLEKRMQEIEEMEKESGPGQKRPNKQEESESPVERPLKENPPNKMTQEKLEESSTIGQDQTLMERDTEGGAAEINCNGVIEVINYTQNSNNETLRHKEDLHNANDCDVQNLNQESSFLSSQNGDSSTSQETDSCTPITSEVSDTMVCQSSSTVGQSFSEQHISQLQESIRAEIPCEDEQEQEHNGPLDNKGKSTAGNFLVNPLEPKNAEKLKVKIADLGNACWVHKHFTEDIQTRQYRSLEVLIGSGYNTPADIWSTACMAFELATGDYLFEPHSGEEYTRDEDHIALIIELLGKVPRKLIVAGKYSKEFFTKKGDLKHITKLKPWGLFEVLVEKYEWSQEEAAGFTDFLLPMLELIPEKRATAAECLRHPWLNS
Data set [8] is described as follows: Toxicity in Crl:CD Sprague-Dawley rat assessed as lymphocyte count in blood at 100 mg/kg, po administered daily for 14 days (reference value: 7.37+/-1.6 10^3/uL). It is filed as organism-based. Particulars: in vivo, 336 h, time 14 day.
For another data set, the system named is MOLT-4. The experiment in a line: Antitumor activity against human MOLT-4 cells assessed as cell growth inhibition treated for 10 to 15 days. The note with it: time 10-15 day. It is filed as functional.
A further data set has as its system ARH-77. The experiment in a line: Antitumor activity against human ARH-77 cells assessed as cell growth inhibition treated for 10 to 15 days. Type of data set: functional. Particulars: time 10-15 day.
For a further data set, the system named is P3HR-1. The experiment in a line: Antitumor activity against human P3HR-1 cells assessed as cell growth inhibition treated for 10 to 15 days. Type of data set: functional. The note with it: time 10-15 day.
Data set [9] deals with Histone-lysine N-methyltransferase NSD2 (Homo sapiens, UniProt O96028). The experiment in a line: Inhibition of human NSD2 using Nucleosomes and [3H]SAM as substrate incubated for 30 mins to 1 hr by HotSpot kinase assay.
Data set [10] has as its target Protein arginine N-methyltransferase 1 (Homo sapiens, UniProt Q99873). The experiment in a line: Inhibition of human PRMT1 using Histone H4 and [3H]SAM as substrate incubated for 30 mins to 1 hr by HotSpot kinase assay.
Data set [11] addresses Protein arginine N-methyltransferase 6 (Homo sapiens, UniProt Q96LA8). The experiment in a line: Inhibition of human PRMT6 using Histone H3 and [3H]SAM as substrate incubated for 30 mins to 1 hr by HotSpot kinase assay.
The target of data set [12] is Ephrin type-A receptor 2 (Homo sapiens) (UniProt P29317). The experiment in a line: Inhibition of N-terminal GST-fused human EPHA2 cytoplasmic domain (572 to 976 residues) expressed in baculovirus-infected Sf21 cells using Blk/Lyntide as substrate at 1 uM in presence of ATP by Mobility shift assay.
Data set [13] has as its target Angiopoietin-1 receptor (Homo sapiens) (UniProt Q02763). The experiment in a line: Inhibition of N-terminal GST-tagged human TIE2 cytoplasmic domain (771 to 1124 residues) expressed in baculovirus-infected Sf21 cells using Blk/Lyntide as substrate at 1 uM in presence of ATP by Mobility shift assay.
Data set [14] deals with Eukaryotic translation initiation factor 2-alpha kinase 3 (Homo sapiens) (UniProt Q9NZJ5). The experiment in a line: Inhibition of N-terminal GST-fused human PEK catalytic domain (536 to 1116 residues) expressed in Escherichia coli expression system using SRPKtide as substrate at 1 uM in presence of ATP by Mobility shift assay.
For another data set, the system named is MC116. The experiment in a line: Antitumor activity against human MC116 cells assessed as cell growth inhibition treated for 10 to 15 days. Type of data set: functional. The note with it: time 10-15 day.
The next data set relates to KARPAS-422. The experiment in a line: Antitumor activity against human KARPAS-422 cells assessed as cell growth inhibition treated for 10 to 15 days. Type of data set: functional. The note with it: time 10-15 day.
The subject of a further data set is SUD4. The experiment in a line: Antitumor activity against human SU-DHL-4 cells assessed as cell growth inhibition treated for 10 to 15 days. It is filed as functional. Particulars: time 10-15 day.
A further data set deals with OCI-Ly7. The experiment in a line: Antitumor activity against human OCILY7 cells assessed as cell growth inhibition treated for 10 to 15 days. Type of data set: functional. Particulars: time 10-15 day.
Data set [15] in a line: Antitumor activity against human CADO-ES1 cells assessed as cell growth inhibition treated for 10 to 15 days. It is filed as functional. Particulars: time 10-15 day.
Data set [16] can be described thus: Antitumor activity against human MINO cells assessed as cell growth inhibition treated for 10 to 15 days. Type of data set: functional. Particulars: time 10-15 day.
Data set [17] can be described thus: Antitumor activity against human HuT 102 cells assessed as cell growth inhibition treated for 10 to 15 days. Type of data set: functional. The note with it: time 10-15 day.
The subject of a further data set is HH. The experiment in a line: Antitumor activity against human HH cells assessed as cell growth inhibition treated for 10 to 15 days. It is filed as functional. The note with it: time 10-15 day.
The subject of a further data set is KMS-11. The experiment in a line: Antitumor activity against human KMS-11 cells assessed as cell growth inhibition treated for 10 to 15 days. The note with it: time 10-15 day. Type of data set: functional.
Data set [18] in a line: Antitumor activity against human RDES cells assessed as cell growth inhibition treated for 10 to 15 days. It is filed as functional. Particulars: RD-ES, time 10-15 day.
In the next data set the test system is SK-N-MC. The experiment in a line: Antitumor activity against human SK-N-MC cells assessed as cell growth inhibition treated for 10 to 15 days. Type of data set: functional. Particulars: time 10-15 day.
A further data set concerns HCC70. The experiment in a line: Antitumor activity against human HCC70 cells assessed as cell growth inhibition treated for 10 to 15 days. Particulars: time 10-15 day. Type of data set: functional.
Another data set deals with MCF7. The experiment in a line: Antitumor activity against human MCF7 cells assessed as cell growth inhibition treated for 10 to 15 days. Type of data set: functional. Particulars: time 10-15 day.
The next data set concerns MDA-MB-436. The experiment in a line: Antitumor activity against human MDA-MB-436 cells assessed as cell growth inhibition treated for 10 to 15 days. It is filed as functional. Particulars: time 10-15 day.
The subject of another data set is UACC-893. The experiment in a line: Antitumor activity against human UACC-893 cells assessed as cell growth inhibition treated for 10 to 15 days. Type of data set: functional. The note with it: time 10-15 day.
A further data set relates to LS-411N. The experiment in a line: Antitumor activity against human LS-411N cells assessed as cell growth inhibition treated for 10 to 15 days. It is filed as functional. The note with it: time 10-15 day.
The next data set concerns NCI-H446. The experiment in a line: Antitumor activity against human NCI-H446 cells assessed as cell growth inhibition treated for 10 to 15 days. Particulars: time 10-15 day. It is filed as functional.
Data set [19] can be described thus: Antitumor activity against human NCI-H841 cells assessed as cell growth inhibition treated for 10 to 15 days. Type of data set: functional. Particulars: time 10-15 day.
The test system of the next data set is NCI-H661. The experiment in a line: Antitumor activity against human NCI-H661 cells assessed as cell growth inhibition treated for 10 to 15 days. It is filed as functional. The note with it: time 10-15 day.
The next data set relates to SK-OV-3. The experiment in a line: Antitumor activity against human SK-OV-3 cells assessed as cell growth inhibition treated for 10 to 15 days. It is filed as functional. Particulars: time 10-15 day.

Chain of Tyrosine-protein kinase FRK (Homo sapiens) (P42685 whole entry, the tested form may be a part): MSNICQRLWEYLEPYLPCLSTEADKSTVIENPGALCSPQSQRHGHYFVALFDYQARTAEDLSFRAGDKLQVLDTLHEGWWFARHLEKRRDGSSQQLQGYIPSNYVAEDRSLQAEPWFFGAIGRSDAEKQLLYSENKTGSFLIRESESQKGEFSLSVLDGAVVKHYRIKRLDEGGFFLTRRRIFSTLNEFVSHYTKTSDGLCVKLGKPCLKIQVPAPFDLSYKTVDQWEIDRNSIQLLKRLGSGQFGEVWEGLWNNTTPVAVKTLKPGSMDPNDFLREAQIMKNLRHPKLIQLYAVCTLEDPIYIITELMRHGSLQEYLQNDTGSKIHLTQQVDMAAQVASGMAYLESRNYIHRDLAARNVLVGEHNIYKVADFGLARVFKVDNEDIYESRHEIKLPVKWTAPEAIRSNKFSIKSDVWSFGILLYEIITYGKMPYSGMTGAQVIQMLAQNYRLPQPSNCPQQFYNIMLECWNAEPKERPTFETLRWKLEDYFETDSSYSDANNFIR
Chain of Insulin receptor-related protein (Homo sapiens) (P14616 27-742 limits assumed): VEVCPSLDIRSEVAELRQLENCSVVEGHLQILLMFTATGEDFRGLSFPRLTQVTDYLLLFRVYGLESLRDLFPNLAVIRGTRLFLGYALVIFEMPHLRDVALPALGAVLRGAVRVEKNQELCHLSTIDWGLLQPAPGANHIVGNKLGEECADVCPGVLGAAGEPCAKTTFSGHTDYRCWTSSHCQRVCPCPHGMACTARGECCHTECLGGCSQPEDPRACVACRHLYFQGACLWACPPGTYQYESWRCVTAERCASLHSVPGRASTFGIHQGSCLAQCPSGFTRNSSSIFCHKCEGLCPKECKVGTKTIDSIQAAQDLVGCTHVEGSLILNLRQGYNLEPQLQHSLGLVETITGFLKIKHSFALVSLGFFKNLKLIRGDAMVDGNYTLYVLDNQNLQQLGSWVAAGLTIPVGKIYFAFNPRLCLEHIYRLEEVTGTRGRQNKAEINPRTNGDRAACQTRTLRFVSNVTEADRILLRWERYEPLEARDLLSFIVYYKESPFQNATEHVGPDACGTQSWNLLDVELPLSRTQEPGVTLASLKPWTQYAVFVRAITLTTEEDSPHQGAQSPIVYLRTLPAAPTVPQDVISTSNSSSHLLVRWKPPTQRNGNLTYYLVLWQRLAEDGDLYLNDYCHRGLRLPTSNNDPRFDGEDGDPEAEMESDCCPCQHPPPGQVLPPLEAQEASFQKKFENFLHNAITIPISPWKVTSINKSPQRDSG
Chain of Insulin receptor-related protein (Homo sapiens) (P14616 747-1297 limits assumed): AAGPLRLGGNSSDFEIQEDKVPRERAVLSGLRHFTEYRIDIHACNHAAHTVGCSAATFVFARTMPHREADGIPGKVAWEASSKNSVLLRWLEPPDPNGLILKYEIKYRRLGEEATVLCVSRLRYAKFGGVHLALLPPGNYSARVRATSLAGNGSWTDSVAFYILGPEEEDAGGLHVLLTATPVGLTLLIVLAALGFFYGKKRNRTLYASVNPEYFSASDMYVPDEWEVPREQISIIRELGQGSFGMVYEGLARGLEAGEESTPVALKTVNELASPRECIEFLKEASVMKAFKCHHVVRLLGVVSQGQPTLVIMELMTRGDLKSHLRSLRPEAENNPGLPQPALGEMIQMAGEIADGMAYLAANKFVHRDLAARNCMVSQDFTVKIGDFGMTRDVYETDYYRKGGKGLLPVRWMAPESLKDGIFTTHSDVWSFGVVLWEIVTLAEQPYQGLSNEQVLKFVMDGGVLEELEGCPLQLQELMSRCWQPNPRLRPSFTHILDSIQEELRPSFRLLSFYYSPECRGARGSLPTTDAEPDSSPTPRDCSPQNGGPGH
Chain of Protein arginine N-methyltransferase 1 (Q99873 whole entry): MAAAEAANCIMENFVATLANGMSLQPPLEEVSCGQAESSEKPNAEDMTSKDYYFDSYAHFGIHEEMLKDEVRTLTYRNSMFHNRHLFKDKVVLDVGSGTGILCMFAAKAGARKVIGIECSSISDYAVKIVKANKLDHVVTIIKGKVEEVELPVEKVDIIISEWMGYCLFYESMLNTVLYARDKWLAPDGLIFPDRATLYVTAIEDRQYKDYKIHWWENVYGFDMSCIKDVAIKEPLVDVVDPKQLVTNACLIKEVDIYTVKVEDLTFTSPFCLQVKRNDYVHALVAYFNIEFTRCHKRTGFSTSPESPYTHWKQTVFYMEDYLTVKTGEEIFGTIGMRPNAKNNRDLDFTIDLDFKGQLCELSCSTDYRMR

The AUC(0-t) is exposure summed from dosing to a finite time, without extrapolation to infinity. The inhibition is the relative decrease from the control value, in per cent. On to `Cc1cc(C)c(CNC(=O)c2cc(Br)c3c(c2C)O[C@@](C)([C@H]2CC[C@H](N(C)C)CC2)O3)c(=O)[nH]1`, for which the AUC(0-t) in data set [1] was found to be 1.6 µM·h. The inhibition was -3.6% in [2]; -8.8% in data set [3]; -3% in data set [4]; -2.6% in data set [5]; 22.3% in data set [6]; -4.7% in data set [7]. Also, in [8], the Activity is given as 3.67 10^3 /uL.
A word on the GI50: it is the concentration at which growth is held to half of that of the control. As a reminder, the IC50 is the concentration that gives 50% inhibition. High values mean lower potency, low ones higher potency. Consider `Cc1cc(C)c(CNC(=O)c2cc(Cl)c3c(c2C)O[C@@](C)([C@H]2CC[C@H](N(C)C)CC2)O3)c(=O)[nH]1` [VALEMETOSTAT], for which the GI50 in the data set with MOLT-4 is 0.12 µM; in the data set with ARH-77, > 1 µM; with P3HR-1, 0.0143 µM; with MC116 it was 0.0504 µM; in the data set with KARPAS-422, 0.00156 µM; with SUD4 it was 0.0555 µM. For the same molecule, the GI50 with OCI-Ly7 came out at 0.0592 µM; in [15], 0.952 µM; in data set [16], 0.0207 µM; in data set [17], 0.000987 µM; with HH, 0.00718 µM; in the data set on KMS-11, 0.0103 µM. The GI50 (in [18]; in the data set on SK-N-MC; with HCC70; in the data set with MCF7; in the data set with MDA-MB-436; in the data set with UACC-893) was > 1 µM each time. In addition, the GI50 in the data set on LS-411N was > 1 µM; with NCI-H446, 0.124 µM; in [19] it was 0.134 µM; in the data set with NCI-H661 it was 0.359 µM; in the data set with SK-OV-3, > 1 µM. In addition, the IC50 in [9], in data set [10] and in [11] was 100 µM in each case. The inhibition in [12] is -6.7%; in data set [2], -4.5%; in data set [3], -4.6%; in [13] it was -7.6%; in data set [4] it was -0.3%; in [5] it was -4.6%. The inhibition in data set [14] was -9.8%; in data set [7] it was -6.9%.
